# Patent publication US20170121295A1, “POLYCYCLIC LPA1 ANTAGONIST AND USES THEREOF” (AMIRA PHARMACEUTICALS, INC., priority 2010, published 2017)
# Where two headings read alike, the source gives them in different places.
# Legend:
# [1] = target: T1, Human LPA1 (Homo sapiens, UniProt Q92633); assay: LPA1 Calcium Flux Assay; format: cell-based; details: human LPA1 expressing CHO cells, 10 nM LPA; read-out: Ca Flux IC50 LPA1
# T1 construct: the full-length cDNA for human LPA1 was obtained by PCR of the reverse transcription reaction; expressed in transfected cells
# T1 sequence (Q92633 whole entry): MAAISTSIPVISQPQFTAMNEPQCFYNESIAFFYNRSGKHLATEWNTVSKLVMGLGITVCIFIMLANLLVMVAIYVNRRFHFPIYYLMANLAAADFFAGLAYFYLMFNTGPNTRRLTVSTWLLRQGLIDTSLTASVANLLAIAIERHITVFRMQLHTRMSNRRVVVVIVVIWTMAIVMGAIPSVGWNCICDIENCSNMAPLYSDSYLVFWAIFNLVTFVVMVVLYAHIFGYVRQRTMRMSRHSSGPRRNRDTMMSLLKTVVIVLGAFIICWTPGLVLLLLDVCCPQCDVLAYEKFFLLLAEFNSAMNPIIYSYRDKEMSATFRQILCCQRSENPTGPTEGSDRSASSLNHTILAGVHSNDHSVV
# Procedure: A 1.1 kb cDNA encoding the human LPA1 receptor was cloned from human lung. Human lung RNA (Clontech Laboratories, Inc. USA) was reverse transcribed using the RETROscript kit (Ambion, Inc.) and the full-length cDNA for human LPA1 was obtained by PCR of the reverse transcription reaction. The nucleotide sequence of the cloned human LPA1 was determined by sequencing and confirmed to be identical to the published human LPA1 sequence (An et al. Biochem. Biophys. Res. Commun. 231:619 (1997). The cDNA was cloned into the pCDNA5/FRT expression plasmid and transfected in CHO cells using lipofectamine 2000 (Invitrogen Corp., USA). Clones stably expressing human LPA1 were selected using hygromycin and identified as cells that show Ca-influx in response to LPA.
# (§1) Human LPA1 or LPA3 expressing CHO cells are seeded at 20,000-45,000 cells per well in a 96-well poly-D-lysine coated plate one or two days before the assay. Prior to the assay, the cells are washed once with PBS and then cultured in serum-free media overnight. On the day of the assay, a calcium indicator dye (Calcium 4, Molecular Devices) in assay buffer (HBSS with Ca^2+ and Mg^2+ and containing 20 mM Hepes and 0.3% fatty-acid free human serum albumin) is added to each well and incubation continued for 1 hour at 37° C. 10 μl of test compound in 2.5% DMSO are added to the cells and incubation continued at room temperature for 30 minutes. Cells are the stimulated by the addition of 10 nM LPA and intracellular Ca^2+ measured using the Flexstation 3 (Molecular Devices). IC50s are determined using Graphpad prism analysis of drug titration curves.
# [2] = target: T2, Human LPA3 (Homo sapiens, UniProt Q9UBY5); assay: LPA3 Calcium Flux Assay; format: cell-based; details: human LPA3 expressing CHO cells, 10 nM LPA; read-out: Ca Flux IC50 LPA3
# T2 construct: The full-length cDNA fragment for human LPA3 was obtained by PCR from the vector
# T2 sequence (Q9UBY5 1-353): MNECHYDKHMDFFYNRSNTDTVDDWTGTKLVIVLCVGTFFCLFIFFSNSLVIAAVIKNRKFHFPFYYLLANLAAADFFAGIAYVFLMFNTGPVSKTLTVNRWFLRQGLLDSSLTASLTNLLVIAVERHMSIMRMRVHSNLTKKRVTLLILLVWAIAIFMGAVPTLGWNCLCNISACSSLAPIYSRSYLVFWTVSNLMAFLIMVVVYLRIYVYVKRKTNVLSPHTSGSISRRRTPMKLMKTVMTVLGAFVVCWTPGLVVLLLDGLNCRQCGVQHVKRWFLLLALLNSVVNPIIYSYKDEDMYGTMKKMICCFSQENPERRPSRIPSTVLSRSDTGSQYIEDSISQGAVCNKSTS
# Procedure: A vector containing the human LPA3 receptor cDNA was obtained from the Missouri S&T cDNA Resource Center (www.cdna.org). The full-length cDNA fragment for human LPA3 was obtained by PCR from the vector. The nucleotide sequence of the cloned human LPA3 was determined by sequencing and confirmed to be identical to the published human LPA3 sequence (NCBI accession number NM_012152). The cDNA was cloned into the pCDNA5/FRT expression plasmid and transfected in CHO cells using lipofectamine 2000 (Invitrogen Corp., USA). Clones stably expressing human LPA3 were selected using hygromycin and identified as cells that show Ca-influx in response to LPA.
# as §1
# [3] = Pharmacokinetics in Male Beagle Dogs; format: in vivo; details: for bioavailability: po, 5 mg/kg, read-out: apparent oral bioavailability
# Procedure: The pharmacokinetics of Compound 1 and Compound 2 was assessed in male Beagle dogs.
# Dosing of male Beagle dogs (n=3) was performed. Compound 1 or Compound 2 was dosed intravenously at 2 mg/kg (fasted) and orally (fasted or non-fasted) at 5 mg/kg. In fasted animals, food was withheld a minimum of 12 hours prior to dosing and then returned 4 hours post-dose. Non-fasted animals were allowed to feed 1 hour prior to dosing ad libitum. Compound 2 capsules were given by oral gavage in the fasted state. Plasma samples were collected by Perry Scientific study personnel.
# The capsules are noted in Table 25 below. Capsules were size 0 gelatin (Capsugel, Peapack, N.J.). Tablet formulations are noted in Example 24.
# For the clinical drug product oral solution of active agent (1.67 mg/mL), sucralose (0.5% w/w) and cherry flavor (0.5% w/w) is added to the formulation as a sweetener and taste masking agent, respectively to a 0.5% methocel aqueous solution.
# (§2) Blood samples (approximately 1 mL total blood) were taken from each dog at pre-dose, and an initial time of 5 or 15 min and then various time points up to 24 hours post-dose (10-11 samples per animal). Samples were collected on wet ice in tubes containing potassium EDTA. After each blood draw, the cannula was flushed with an equivalent volume of heparinized saline (0.1 mL at 40 units/mL). Plasma samples, prepared by centrifugation of whole blood, were stored frozen (−80° C.) prior to analysis.
# [4] = Thermodynamic aqueous solubility; format: physicochemical; details: water, 25 °C, thermodynamic from solid, equilibrated at 25° C. for 24 hours, read-out: Solubility (mg/ml, free form equivalent)
# Procedure: Aqueous solubility was determined by suspending sufficient compound in water to give a maximum final concentration of ≧10 mg·ml−1 of the parent free-form of the compound. The suspension was equilibrated at 25° C. for 24 hours then the pH was measured. The suspension was then filtered through a glass fiber C filter into a 96 well plate unless stated otherwise. The filtrate was then diluted by a factor of 101. Quantification was by HPLC with reference to a standard solution of approximately 0.25 mg·ml^−1 in DMSO. Different volumes of the standard, diluted and undiluted sample solutions were injected. The solubility was calculated using the peak areas determined by integration of the peak found at the same retention time as the principal peak in the standard injection.
# Analysis was performed on an Agilent HP1100 series system equipped with a diode array detector and using ChemStation software vB.02.01-SR1.
# [5] = Pharmacokinetics in Sprague-Dawley Rats; format: in vivo; details: for half-life: Sprague-Dawley, rat, plasma; for dose normalized exposure: oral, 10 mg/kg
# Procedure: The pharmacokinetics of Compound 1 and Compound 2 was assessed in male and female Sprague-Dawley rats (225-300 g at 10 weeks).
# Compound 2 (1 mg/kg) was administered intravenously (IV) to fasted rats (n=3) as a solution in purified water via a bolus injection into the jugular vein (1 mg/mL; 1 mL/kg). Compound 1 (10 mg/kg) was administered orally (PO), to fasted (for at least 12 hours) or non-fasted rats (n=2 or 3) as a solution in 0.5% methylcellulose unless otherwise noted via an oral gavage to the stomach (3.33 mg/mL; 3 mL/kg). Non-fasted animals were fasted for at least 12 hours and then were given food ad libitum for 1 hour prior to dosing. Fasted animals were dosed 1, 10, 30, 100 or 300 mg/kg Compound 1 as a solution in 0.5% methylcellulose via an oral gavage to the stomach (0.69 mg/mL, 10 mg/mL, 33.3 mg/mL or 100 mg/mL) (n=2 or 3 per dose group). In a gastrointestinal study, rats were anesthetized and Compound 1 was administered directly to the duodenum, jcjunum or ilcum at 1 mg/kg in 0.5% methylcellulose.
# Capsules were also administered with Compound 2. Capsules were size 9 gelatin (Torpac, San Diego, Calif.).
# as §2, with “(approximately 300 μL” for “(approximately 1 mL”, “each rat via the jugular vein cannula” for “each dog”
# [6] = system: highly peritoneal metastatic pancreatic cancer cell line; details: LPA-induced and ascites-induced; cited from earlier work
# [7] = system: renal fibrosis; details: compared with LPA1 (−/−) mice; cited from earlier work
# [8] = system: pancreatic cancer cell lines; details: in response to LPA and peritoneal fluid (ascites) from pancreatic cancer patients; cited from earlier work
# [9] = male, Beagle, dog, plasma, oral 5 mg/kg, fasted state
smiles,measurement,setting,value
Cc1noc(-c2ccc(-c3ccc(C4(C(=O)O)CC4)cc3)cc2)c1NC(=O)OC(C)c1ccccc1 (racemic) [Racemic Compound 1],IC50,[1],< 200 nM
same,IC50,[2],> 1000 nM
"Cc1noc(-c2ccc(-c3ccc(C4(C(=O)[O-])CC4)cc3)cc2)c1NC(=O)O[C@H](C)c1ccccc1.[Na+] [Compound 2, 1-{4′-[3-methyl-4-((R)-1-phenyl-ethoxycarbonylamino)-isoxazol-5-yl]-biphenyl-4-yl}-cyclopropanecarboxylic acid, sodium salt]",effect of food on absorption,"[3]; dog, fasted vs fed",food has little effect on the absorption
same,decrease of AUC,"[3]; dosed as a capsule form, fasted",2.5 fold
same,bioavailability,"[3]; male, Beagle, dog, plasma, dosed as a capsule form, fasted",24%
same,bioavailability,"[3]; male, Beagle, dog, plasma, human dose solution",57%
same,bioavailability,[3]; [9],63%
same,bioavailability,"[3]; male, Beagle, dog, plasma, oral 5 mg/kg, fed state",60%
same,bioavailability,"[3]; male, Beagle, dog, plasma, tablet formulation (first of two)",100%
same,bioavailability,"[3]; male, Beagle, dog, plasma, tablet formulation (second of two)",52%
same,Vd,"[3]; male, Beagle, dog, plasma, IV 2 mg/kg, read-out: estimated volume of distribution",0.6 L/kg
same,clearance,"[3]; male, Beagle, dog, plasma, IV 2 mg/kg, read-out: systemic clearance",10.5 mL/min/kg
same,half-life,"[3]; male, Beagle, dog, plasma, IV 2 mg/kg, read-out: terminal half-life (converted)",3.9 h
same,Cmax,[3]; [9],5500 ng/mL
same,solubility at 24 h,[4],≥ 10 mg/mL
same,volume of distribution,[5]; IV 1 mg/kg,approximately two-fold total body water
same,half-life,"[5]; female, IV 1 mg/kg, females",3.2 h
same,half-life,"[5]; male, IV 1 mg/kg, males",3.8 h
same,dose normalized exposure,[5],2.4 µg·h/mL
same,dose normalized exposure,[5]; in a gelatin capsule,2.1 µg·h/mL
Cc1noc(-c2ccc(CSCCC(=O)O)cc2)c1NC(=O)OC(C)c1ccccc1Cl (stereo not shown) [Ki16425],invasion activity,[6],blocked
same,development of renal fibrosis in UUO mice,[7],closely resembled the LPA1 (−/−) mice
same,in vitro migration,[8],effectively blocked
Cc1noc(-c2ccc(-c3ccc(C4(C(=O)O)CC4)cc3)cc2)c1NC(=O)O[C@@H](C)c1ccccc1 [S-enantiomer of Compound 1],IC50,[1],< 200 nM
same,IC50,[2],> 1000 nM
